Results published in US5652222A, “Selective inhibition of leukemic cell proliferation by bcr-abl antisense oligonucleotides” (Temple University-of The Commonwealth System of Higher …, priority 1993, dated 1997).
Entries after “also recorded” stand apart in the source; their conditions may differ.

Assays:
[1] = system: cells of CML patients in blast crisis, K-28 (b3a2) type junction; experiment: Colony formation of CML blast crisis patient cells expressing the b3a2 (K-28) junction; assay type: cell-based, human; details: for Number of Colonies, Antisense-treated: conditions of Example 1
Text: To identify CML blast crisis patients carrying the second common type junction, in which bcr exon 3 is juxtaposed to c-abl exon 2, total RNA derived from cells of CML patients in blast crisis was reverse-transcribedwith synthetic primers. The 3' primer (SEQ ID NO:10) was complementary to 22 nucleotides of c-abl. exon 2. The 5' primer was the 22-mer GTCATCGTCCACTCAGCCACTG (SEQ ID NO:12) complementary to 22 nucleotides of bcr exon 3. The RNA was amplified by polymerase chain reaction according to Example 1. The amplification products were then hybridized with the synthetic 18-mer oligonucleotide GAAGGGCTTT TGAACTCT (SEQ ID NO:6), which is complementary to the b3a2 junction. After cloning of breakpoints in two patients, sequence analysis of several clones identified the b3a2 junction as precisely corresponding to the K-28 breakpoint shown in FIG. 3. (SEQ ID NO:4).
Utilizing the culture condition and oligomer treatment conditions of Example 1, cells were exposed to either no oligomer (FIG. 4A), the 18-nucleotide synthetic oligomer GAAGTGCTGT TGAACTCT (SEQ ID NO:5) partially complementary to the b3a2 junction, containing 9 nucleotides corresponding to bcr and 9 nucleotides corresponding to c-abl but with two mismatches (FIG. 4B); or the 18-nucleotide synthetic oligomer GAAGGGCTTT TGAACTCT (SEQ ID NO:6) completely complementary to the same bcr-abl junction (FIG. 4C).

CML chronic phase = details: cited from earlier work; for control of the excessive granulopoiesis of CML: human, in vivo; for median survival: standard approach to treatment of CML chronic phase
[2] = system: nucleic acid synthesis in both normal and leukemic cells; details: cited from earlier work
BV173 cells (b2/a2) = experiment: Proliferation of BV173 cells expressing b2a2 junction; assay type: cell-based, human; details: in comparison to untreated control cells (FIG. 7)
Method: Amplification of the bcr-abl junction with a 5' primer corresponding to bcr exon 2, and a 3' primer corresponding to abl exon 2, followed by hybridization to an 18-mer specific for the b2/a2 or the b3/a2 junction identified the b2/a2 breakpoint in these cells (data not shown).
The sensitivity of the BV173 cells to b2/a2 antisense phosphorothioate oligodeoxynucleotides was assessed. Phosphorothioate oligodeoxynucleotides were prepared on either an Applied Biosystems Model 380B or 390Z Automated Synthesis instrument using conventional phosphoramidite monomers and manufacturer-recommended procedures, which included substitution of tetraethylthiuran (or an equivalent sulfur-donor reagent) for iodine-water-pyridine, […] reversed-phase preparative chromatography, detritylation, and obtaining the final product in the form of its sodium salt, all according to previously published methodology: Zon and Stec, in Oligonucleotides and Analogues A Practical Approach, F. Eckstein, Ed. (Oxford Univerisity Press, Oxford 1991), pp. 87-108; Zon and Geiser, Anti-Cancer Drug Design 6, 539 (1991); Vu and Hirschenbein, Tetrahedron Lett. 32, 3005-3008 (1991).
BV173 cells were cultured in the presence of phosphorothioate b2/a2 antisense 26-mer CGCTGAAGGG CTTCTTCCT ATTGAT (SEQ ID NO:29), the phosphorothioate sense sequence ATCAATAAGGAAGCCCTTCAGCG (SEQUENCE ID NO:34), or the b3/a2 (SEQ ID NO:31) or b1/a2 (SEQ ID N0:33) phosphorothioate antisense 26-mer. […] The sense oligomer SEQ ID NO:34 gave no inhibition (FIG. 7, -.largecircle.-) in comparison to untreated control cells (FIG. 7, -.quadrature.-).

chronic phase CML = details: cited from earlier work
[3] = alpha-interferon treated CML patients

| Molecule | control of the excessive granulopoiesis of CML (CML chronic phase) | median survival (CML chronic phase) | inhibition of nucleic acid synthesis [2] | inhibition of proliferation of BV173 cells (BV173 cells (b2/a2)) | also measured |
| --- | --- | --- | --- | --- | --- |
| SEQ ID NO:6: 18-nucleotide synthetic oligomer GAAGGGCTTT TGAACTCT completely complementary to the b3a2 (K-28) junction (antisense GAAGGGCTTTTGAACTCT; further chemistry not given here) | – | – | – | – | Number of Colonies, Antisense-treated ([1]; Table 2, patient 1, untreated 278 ± 28): 102 ± 14 colonies; Number of Colonies, Antisense-treated ([1]; Table 2, patient 2, untreated 182 ± 18): 68 ± 12 colonies; % Inhibition ([1]; Table 2, patient 2, number of colonies vs untreated): 63% |
| NC(=O)NO [hydroxyurea] | useful in the control of the excessive granulopoiesis of CML | about 47 months | inhibit nucleic acid synthesis in both normal and leukemic cells; also recorded: inhibit nucleic acid synthesis both in normal and leukemic cells | – | – |
| CS(=O)(=O)OCCCCOS(C)(=O)=O [busulfan] | useful in the control of the excessive granulopoiesis of CML | about 47 months | inhibit nucleic acid synthesis in both normal and leukemic cells; also recorded: inhibit nucleic acid synthesis both in normal and leukemic cells | – | – |
| SEQ ID NO:31: b3/a2 phosphorothioate antisense 26-mer CGCTGAAGGGCTT TTGAA&TCTGCTT (antisense CGCTGAAGGGCTTTTGAACTCTGCTT; all phosphorothioate, sugars by position and methylation of C not given here) | – | – | – | Only the b2/a2 antisense oligodeoxynucleotide inhibited the proliferation of BV173 cells | – |
| SEQ ID NO:33: b1/a2 phosphorothioate antisense 26-mer CGCTGAAGGGCTT CTGCGTCTCCATG (antisense CGCTGAAGGGCTTCTGCGTCTCCATG; all phosphorothioate, sugars by position and methylation of C not given here) | – | – | – | Only the b2/a2 antisense oligodeoxynucleotide inhibited the proliferation of BV173 cells | – |
| Alpha-interferon | – | – | – | – | patients with normalization of the blood count (chronic phase CML; 3-9 million units intramuscularly each day, chronic phase CML): about three quarters; side effects (chronic phase CML; CML patients): fever, anorexia, muscle and bone pain, depression, and often immune thrombocytopenia; patients with a decrease in Ph1-chromosome-containing metaphases (chronic phase CML; [3]): more than one third; treated patients having fewer than 5% Ph1-positive cells (chronic phase CML; [3]): about 15%; specificity of effect on leukemic clone (chronic phase CML; human, in vivo): non-specific, as indicated by the persistence of Ph^1 leukemic cells and the inhibition of normal hematopoietic cell growth |
